Measurements from patent publication US20100291592A1, “NOVEL MARKER FOR SENSITIVITY AGAINST SULFONAMIDE COMPOUND” (priority 2006, published 2010).

Columns and labels:
[1] = test system: cancer cell line resistant to E7070; settings: WO2006/030941 and WO2006/030947; cited from earlier work
[2] = test system: EGFR1; test: EGFR1 expression level in cultured HCT116-C9 (mass spectrometry, 12C/13C-leucine labelling); assay type: cell-based, human; settings: HCT116-C9, 1 μM E7070, 24 hours, LC-MS/MS, treated/untreated
Description: First, RPMI-1640 (containing 10% FBS) supplemented with ^13C-labeled L-leucine (^13C-leucine, Cambridge Isotope Labs) and RPMI-1640 (containing 10% FBS) supplemented with non-isotope-labeled L-leucine (^12C-leucine) were prepared. Then, human colon cancer cell line HCT116-C9 was cultured in each medium through at least the fifth passage. HCT116-C9 was a subline separated from human colon cancer cell line HCT116 (obtained from ATCC) and known as a cell line highly sensitive to […] (Molecular Cancer Therapeutics, 2002, 1, 275-286). Thereafter, each cell was seeded in a 15-cm-diameter culture dish at a concentration of 1.0×10^7 cells/50 ml. Then, 24 hours later, 1 μM of […] was added to HCT116-C9 cultured in the ^12C-leucine-containing medium and nothing was added to HCTZ 16-C9 cultured in the ^13C-leucine-containing medium. These cells were continued culturing. Twenty-four hours later, the cells were washed twice with a phosphate buffer saline according to a routine procedure, added with 3 ml of M-PER (PIERCE) to solubilize the cells and then equal amounts of them were mixed. The cell lysates were dialyzed by a routine procedure to sublimate the solutions, and digested with trypsin, thereby obtaining peptide samples. The resulting peptide samples were analyzed with LC-MS/MS. […]

## Nc1ccc(S(=O)(=O)Nc2cnc3c(Cl)cccc3n2)cc1 [CQS, 2-sulfanylamide-5-chloroquinoxaline]
[1]
  Cross-resistance of E7070-resistant cancer cell line (antiproliferative activity): cross-resistance

## NS(=O)(=O)c1ccc(S(=O)(=O)Nc2cccc3c(Cl)c[nH]c23)cc1 [E7070, N-(3-chloro-1H-indole-7-yl)-1,4-benzenedisulfonamide]
[2]
  Peak intensity ratio (12C/13C) of EGFR1-derived peptide fragment: 0.6-0.8

## O=C(Nc1ccc(Cl)cc1)NS(=O)(=O)c1ccc2c(c1)CCC2 [LY186641, N-[[(4-chlorophenyl)amino]carbonyl]-2,3-dihydro-1H-indene-5-sulfonamide]
[1]
  Cross-resistance of E7070-resistant cancer cell line (antiproliferative activity): cross-resistance

## O=C(Nc1ccc(Cl)c(Cl)c1)NS(=O)(=O)c1ccc2c(c1)CCO2 [LY295501, N-[[(3,4-dichlorophenyl)amino]carbonyl]-2,3-dihydrobenzofuran-5-sulfonamide]
[1]
  Cross-resistance of E7070-resistant cancer cell line (antiproliferative activity): cross-resistance

## O=C(NS(=O)(=O)c1ccc(Br)s1)c1ccc(Cl)cc1Cl [LY573636, N-(2,4-dichlorobenzoyl)-5-bromothiophene-2-sulfonamide]
[1]
  Cross-resistance of E7070-resistant cancer cell line (antiproliferative activity): cross-resistance

## O=C(NS(=O)(=O)c1ccc(Cl)cc1)c1ccc(Cl)cc1Cl [LY-ASAP, N-(2,4-dichlorobenzoyl)-4-chlorophenylsulfonamide]
[1]
  Cross-resistance of E7070-resistant cancer cell line (antiproliferative activity): cross-resistance
